In patent publication US8362052B2, “Isoindolin-1-one derivative” (MSD K.K., priority 2009, dated 2013) one finds EC50 data, which are given here for 2 molecules.

This test concerns the target T1, human GPR120 (Homo sapiens, UniProt Q5NUL3).
T1 construct: expressed in transfected cells
T1 sequence (Q5NUL3 1-361): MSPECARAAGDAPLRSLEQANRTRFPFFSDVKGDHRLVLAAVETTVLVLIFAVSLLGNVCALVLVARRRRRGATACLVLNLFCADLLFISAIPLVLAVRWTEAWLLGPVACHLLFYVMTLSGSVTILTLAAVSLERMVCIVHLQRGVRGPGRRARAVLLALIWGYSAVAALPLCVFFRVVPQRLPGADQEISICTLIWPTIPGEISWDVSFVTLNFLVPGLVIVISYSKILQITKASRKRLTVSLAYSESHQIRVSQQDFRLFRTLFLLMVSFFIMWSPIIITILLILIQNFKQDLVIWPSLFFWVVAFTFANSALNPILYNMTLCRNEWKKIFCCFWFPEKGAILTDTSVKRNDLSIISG
The experiment in a line: Measurement of intracellular calcium concentration (FLIPR), GPR120 agonist action. The conditions noted are these: human GPR120 expression CHO cells, Fluo-4 AM. Format: cell-based. From the text: Primers were synthesized in the domains on the opposite sides of the base sequences of the ORFs of the known GPCR and GPR120 in GenBank Accession NOs. NM 181745 (human) and NM 181748 (mouse), and the genes were cloned by RT-PCR. The base sequences of the primers used are described below. The restriction enzymes, BamHI and EcoRI, recognition sites were introduced for subcloning, respectively.
Using Lipofectamine 2000 (Invitrogen), cDNA of GPR120 receptor was transfected into CHO/NFAT-BLA cells, and drug-resistant cells were isolated to obtain GPR120 stable expression strains. The GPR120-expressed CHO cells were cultured in DMEM/F12 medium containing 10% fetal bovine serum, 100 units/ml penicillin, 0.1 mg/ml streptomycin sulfate, 250 μg/ml Zeocin, 500 μg/mL Geneticin and 15 mM HEPES.
On the day before the measurement day, 4 μM Fluo-4 AM (fluorescence calcium indicator reagent) was incubated to be introduced into the human GPR120 expression CHO cells plated at 20000 cells per well of a 96-well black plate (ViewPlate; Packard) in the presence of 2.5 mM probenecid in a CO2 incubator for 1 hour. […] Variations in the intracellular calcium concentration were measured by Fluorescence Imaging Plate Reader (FLIPR; Molecular Devices) to examine the agonist action, and EC50 values were calculated.

pEC50: −log10 of the molar value.

For `O=C1c2ccccc2CN1c1cc(F)cc(Oc2cccnc2)c1` [Example 1, 2-[3-fluoro-5-(pyridin-3-yloxy)phenyl]isoindolin-1-one], the pEC50 (as a rule, −log10 of the EC50, conventionally taken in molar units) is 6.07.

For `O=S1(=O)c2ccccc2CN1c1cc(F)cc(Oc2cccnc2)c1` [Example 2, 2-[3-fluoro-5-(pyridin-3-yloxy)phenyl]-2,3-dihydro-1,2-benzisothiazol-1,1-dioxide], the negative logarithm of the EC50 (pEC50) is 6.74.
